Test results from PubChem BioAssay (NCI).
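GI50 marks 50% less growth. TGI is the concentration that stops growth completely.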

What was measured:
Test in all cases: growth of human tumour cells (NCI), 384-well format
[1] = system: HL-60(TB) leukemia
[2] = system: SN12C renal
[3] = system: HOP-62 NSCLC
[4] = system: SF-295 CNS
[5] = system: OVCAR-4 ovarian
[6] = system: SK-MEL-2 melanoma
[7] = system: CCRF-CEM leukemia
[8] = system: MDA-MB-468 breast
[9] = system: A498 renal
[10] = system: MALME-3M melanoma
[11] = system: HS 578T breast
[12] = system: HCC-2998 colon
[13] = system: TK-10 renal

| Structure (SMILES) | GI50 [1] [µM] | TGI [1] [µM] | GI50 [2] [µM] | TGI [2] [µM] | GI50 [3] [µM] | TGI [3] [µM] | GI50 [4] [µM] | TGI [4] [µM] | GI50 [5] [µM] | TGI [5] [µM] | GI50 [6] [µM] | TGI [6] [µM] | GI50 [7] [µM] | TGI [7] [µM] | GI50 [8] [µM] | TGI [8] [µM] | GI50 [9] [µM] | TGI [9] [µM] | GI50 [10] [µM] | TGI [10] [µM] | also measured |
| --- | --- | --- | --- | --- | --- | --- | --- | --- | --- | --- | --- | --- | --- | --- | --- | --- | --- | --- | --- | --- | --- |
| C=CC(=O)Nc1cc(Nc2nccc(-c3cn(C)c4ccccc34)n2)c(OC)cc1N(C)CCN(C)C | 0.756 | 1.94 | 1.33 | 3.13 | 1.56 | 3.37 | 2.62 | 6.33 | 2.02 | 3.54 | 0.354 | 1.2 | 1.39 | 2.69 | 0.0378 | 0.189 | 1.12 | 2.53 | 1.15 | 2.54 | GI50 [11]: 1.55 µM; TGI [11]: 3.04 µM; GI50 [12]: 0.767 µM; TGI [12]: 2 µM; GI50 [13]: 0.317 µM; TGI [13]: 1.77 µM |
| Cn1cc(-c2cc3c(N4CCN(c5ncc([C@@](C)(N)c6ccc(F)cc6)cn5)CC4)ncnn3c2)cn1 | 2.24 | 4.94 | 4.54 | 16.7 | 3.14 | > 50.1 | 3.72 | 19.9 | 2.96 | 12.2 | 3.84 | 16.8 | 2.78 | 10.2 | 1.12 | 3.03 | 3.12 | 9.79 | 2.46 | 5.79 | GI50 [11]: 1.75 µM; TGI [11]: 5.83 µM; GI50 [12]: 2.15 µM; TGI [12]: 3.82 µM; GI50 [13]: 7.29 µM; TGI [13]: 48.2 µM |
